Experimental data as given in patent US4285964A, “Salts of (+)-catechine, their preparation and use, and compositions containing these salts” (Continental Pharma, priority 1979, dated 1981).
Counter-ions that a name gives are not always drawn. Like-named read-outs stand apart in the source and are kept apart here. Blank lines part the entries; values can stand above or below the compound they belong to.

Experiments:
[1] = volume of water per 1 g of (+)-catechin; cited from earlier work
[2] = solubility of double salts in the presence of 2% of benzyl alcohol; format: physicochemical; conditions: salts formed with L-lysine and an acid
Description: These double salts of (+)-catechin are all hydrosoluble but the solubility varies somewhat as a function of the acid used.
Upon cooling, salts precipitate and 1 to 3% of benzyl alcohol are added, advantageously 2%. The solution is reheated to about 45° C. and allowed to cool again, preferably to below 10° C. The double salt then remains in solution.

[3] = pH of solutions of the salts; format: physicochemical

SMILES: Oc1cc(O)c2c(c1)O[C@H](c1ccc(O)c(O)c1)[C@@H](O)C2 [(+)-catechin, trans-2-(3,4-dihydroxyphenyl)-3,4-dihydro-2H-1-benzopyran-3,5,7-triol]
- solubility of (+)-catechin in water [1]: 1100-1200 ml of water

- solubility ([2]; listed as salt formed with L-lysine and hydrochloric acid): above 15 mg of (+)-catechin per ml
SMILES: Oc1cc(O)c2c(c1)O[C@H](c1ccc(O)c(O)c1)[C@@H](O)C2 [Example 2]

- pH of an aqueous concentrated solution [3]: 6.5
- solubility ([2]; water, 2% benzyl alcohol, organic solvent or mixture, read-out: solubility): > 15 mg/mL
SMILES: Oc1cc(O)c2c(c1)O[C@H](c1ccc(O)c(O)c1)[C@@H](O)C2 [Example 6]

- solubility [2]: above 15 mg of (+)-catechin per ml
SMILES: Oc1cc(O)c2c(c1)O[C@H](c1ccc(O)c(O)c1)[C@@H](O)C2 [salt formed with L-lysine and acetic acid]

- solubility [2]: 9.5 mg of (+)-catechin per ml
SMILES: Oc1cc(O)c2c(c1)O[C@H](c1ccc(O)c(O)c1)[C@@H](O)C2 [salt formed with L-lysine and citric acid]

- solubility [2]: above 15 mg of (+)-catechin per ml
SMILES: Oc1cc(O)c2c(c1)O[C@H](c1ccc(O)c(O)c1)[C@@H](O)C2 [salt formed with L-lysine and glucuronic acid]
